Measurements reported in PubChem BioAssay AID330 (DTP/NCI, 2004).
Where “and” joins values, the source holds several entries; their conditions need not be identical. Identical values can stand only once. Toxic doses and inconclusive results are not listed. How the source made its calls: active means survival T/C of 150% or more; inactive means T/C below 125% in these data.

Test system: P388 leukemia ip, CD2F1 mice, survival T/C
Assay: NCI In Vivo Anticancer Drug Screen. Data for tumor model P388 Leukemia (intraperitoneal) in CD2F1 (CDF1) mice
Settings: endpoint: median survival time, higher = longer survival
Summary of the method: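 Mice carrying the transplanted tumor received test compound or vehicle. Survival was recorded in each group, and the value is the treated-group measurement divided by that of the vehicle-treated control group.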

[1] = dose: 60.0 mg/kg/injection, schedule: Q01DX005 (ip), vehicle: saline with Tween-80
[2] = dose: 120.0 mg/kg/injection, schedule: Q01DX005 (ip), vehicle: saline with Tween-80
[3] = dose: 240.0 mg/kg/injection, schedule: Q01DX005 (ip), vehicle: saline with Tween-80
[4] = dose: 100.0 mg/kg/injection, schedule: Q01DX009 (ip), vehicle: saline
[5] = dose: 25.0 mg/kg/injection, schedule: Q01DX009 (ip), vehicle: saline with Tween-80
[6] = dose: 50.0 mg/kg/injection, schedule: Q01DX009 (ip), vehicle: saline with Tween-80
[7] = dose: 100.0 mg/kg/injection, schedule: Q01DX009 (ip), vehicle: saline with Tween-80
[8] = dose: 50.0 mg/kg/injection, schedule: Q01DX005 (ip), vehicle: Klucel (hydroxypropylcellulose) (HPC)
[9] = dose: 100.0 mg/kg/injection, schedule: Q01DX005 (ip), vehicle: Klucel (hydroxypropylcellulose) (HPC)
[10] = dose: 50.0 mg/kg/injection, schedule: Q01DX009 (ip), vehicle: Klucel (hydroxypropylcellulose) (HPC)
[11] = dose: 100.0 mg/kg/injection, schedule: Q01DX009 (ip), vehicle: Klucel (hydroxypropylcellulose) (HPC)
[12] = dose: 200.0 mg/kg/injection, schedule: Q01DX009 (ip), vehicle: Klucel (hydroxypropylcellulose) (HPC)
[13] = dose: 100.0 mg/kg/injection, schedule: Q04DX003 (ip), vehicle: saline with Tween-80
[14] = dose: 200.0 mg/kg/injection, schedule: Q04DX003 (ip), vehicle: saline with Tween-80
[15] = dose: 400.0 mg/kg/injection, schedule: Q04DX003 (ip), vehicle: saline with Tween-80
[16] = dose: 12.5 mg/kg/injection, schedule: Q01DX005 (ip), vehicle: saline with Tween-80
[17] = dose: 25.0 mg/kg/injection, schedule: Q01DX005 (ip), vehicle: saline with Tween-80
[18] = dose: 50.0 mg/kg/injection, schedule: Q01DX005 (ip), vehicle: saline with Tween-80

Measured: T/C

COc1cc(C2c3cc4c(cc3OC(C)(O)C2C(C)=O)OCO4)cc(OC)c1O (stereo not given)
inactive: [1] 95 % of control | [2] 97 % of control | [3] 90 % of control

Nc1ccccc1N=C(CC(=O)c1ccco1)C(F)(F)F
inactive: dose: 6.25 mg/kg/injection, schedule: Q01DX009 (ip), vehicle: saline 99 % of control | dose: 25.0 mg/kg/injection, schedule: Q01DX009 (ip), vehicle: saline 91 % of control | [4] 88 % of control | dose: 200.0 mg/kg/injection, schedule: Q01DX009 (ip), vehicle: saline 105 % of control

O=C1NC(=O)[C@@]2(CC[C@@H](O)C2)c2ccncc21
inactive: dose: 1.5 mg/kg/injection, schedule: Q01DX009 (ip), vehicle: DMSO 89 % of control | dose: 3.0 mg/kg/injection, schedule: Q01DX009 (ip), vehicle: DMSO 93 % of control | dose: 6.0 mg/kg/injection, schedule: Q01DX009 (ip), vehicle: DMSO 101 % of control | dose: 12.0 mg/kg/injection, schedule: Q01DX009 (ip), vehicle: DMSO 95 % of control | dose: 25.0 mg/kg/injection, schedule: Q01DX005 (ip), vehicle: DMSO 91 % of control | dose: 50.0 mg/kg/injection, schedule: Q01DX005 (ip), vehicle: DMSO 96 % of control | dose: 100.0 mg/kg/injection, schedule: Q01DX005 (ip), vehicle: DMSO 93 % of control | dose: 200.0 mg/kg/injection, schedule: Q01DX005 (ip), vehicle: DMSO 92 % of control

O[C@]12CC=CC[C@]1(O)CC(N1CCCCC1)C2
inactive: dose: 12.5 mg/kg/injection, schedule: Q01DX009 (ip), vehicle: saline with Tween-80 100 % of control | [5] 120 % of control and 93 % of control | [6] 100 % of control and 111 % of control | [7] 93 % of control

COc1ccc2[se]c(C(=O)O)cc2c1
inactive: dose: 50.0 mg/kg/injection, schedule: Q01DX009 (ip), vehicle: saline 91 % of control | [4] 91 % of control

[N-]=[N+]=NC1(N=[N+]=[N-])C(=O)Nc2ccc(Cl)cc2C1=O (stereo not given)
inactive: [8] 107 % of control | [9] 88 % of control

CC(=O)OC1CCC2C3CCC4=C(C(=O)C=CC4(C)O)C3CCC12C (stereo not given)
inactive: dose: 4.0 mg/kg/injection, schedule: Q01DX009 (ip), vehicle: Klucel (hydroxypropylcellulose) (HPC) 93 % of control | dose: 8.0 mg/kg/injection, schedule: Q01DX009 (ip), vehicle: Klucel (hydroxypropylcellulose) (HPC) 90 % of control | dose: 16.0 mg/kg/injection, schedule: Q01DX009 (ip), vehicle: Klucel (hydroxypropylcellulose) (HPC) 101 % of control | dose: 32.0 mg/kg/injection, schedule: Q01DX009 (ip), vehicle: Klucel (hydroxypropylcellulose) (HPC) 88 % of control | dose: 64.0 mg/kg/injection, schedule: Q01DX009 (ip), vehicle: Klucel (hydroxypropylcellulose) (HPC) 108 % of control

Cc1cnc(NCCCCCCCCNc2ncc(C)c(-c3ccccc3O)n2)nc1-c1ccccc1O
inactive: dose: 100.0 mg/kg/injection, schedule: Q04DX003 (ip), vehicle: saline 95 % of control | dose: 200.0 mg/kg/injection, schedule: Q04DX003 (ip), vehicle: saline 93 % of control | dose: 400.0 mg/kg/injection, schedule: Q04DX003 (ip), vehicle: saline 89 % of control

CC(C)(C)NCC(O)COc1cccc2c1CCC(=O)N2 (stereo not given)
inactive: [6] 100 % of control | [7] 102 % of control | dose: 200.0 mg/kg/injection, schedule: Q01DX009 (ip), vehicle: saline with Tween-80 97 % of control

Cc1cccc(NC(=O)Nc2ccccc2Cl)n1
inactive: [10] 102 % of control | [11] 96 % of control | [12] 93 % of control

Cc1ccc2nc(CC(=O)c3ccc4ccccc4c3)c(=O)[nH]c2c1
inactive: [1] 99 % of control | [2] 92 % of control | [3] 94 % of control

COc1ccc2nc3cc(Cl)ccc3c(NCCC3CCCN4CCCCC34)c2c1 (stereo not given)
inactive: dose: 12.5 mg/kg/injection, schedule: Q01DX005 (ip), vehicle: distilled water + Tween-80 109 % of control | dose: 25.0 mg/kg/injection, schedule: Q01DX005 (ip), vehicle: distilled water + Tween-80 114 % of control

Cc1cc(C)c(S(=O)(=O)Sc2nnnn2-c2ccccc2)c(C)c1
inactive: [10] 100 % of control | [11] 105 % of control | [12] 95 % of control

O=C(O)CSc1ccc(NC(=O)NC2CCCCC2)cc1
inactive: [13] 100 % of control | [14] 100 % of control | [15] 100 % of control

CCCCN(CCCC)C(C)C(=O)c1ccc2cc(Br)c3ccccc3c2c1 (stereo not given)
inactive: [16] 110 % of control | [17] 101 % of control | [18] 99 % of control and 100 % of control | dose: 100.0 mg/kg/injection, schedule: Q01DX005 (ip), vehicle: saline with Tween-80 107 % of control | dose: 200.0 mg/kg/injection, schedule: Q01DX005 (ip), vehicle: saline with Tween-80 119 % of control

S=C(Nc1ccccc1)P(c1ccccc1)c1ccccc1
inactive: [8] 111 % of control and 99 % of control | [9] 116 % of control and 89 % of control | dose: 200.0 mg/kg/injection, schedule: Q01DX005 (ip), vehicle: Klucel (hydroxypropylcellulose) (HPC) 111 % of control and 89 % of control

C#CCOc1ccc(C(F)(F)F)cc1
inactive: [5] 105 % of control | [6] 118 % of control | [7] 119 % of control

O=C(N=Nc1c(Cl)c(O)c2ccccc2c1O)C(F)(F)F
inactive: dose: 1.56 mg/kg/injection, schedule: Q01DX009 (ip), vehicle: saline with Tween-80 101 % of control | dose: 3.13 mg/kg/injection, schedule: Q01DX009 (ip), vehicle: saline with Tween-80 110 % of control | dose: 6.25 mg/kg/injection, schedule: Q01DX009 (ip), vehicle: saline with Tween-80 115 % of control

CCOC(=O)C(N)CSCSC (stereo not given)
inactive: dose: 50.0 mg/kg/injection, schedule: Q01DX009 (ip), vehicle: water 88 % of control | dose: 100.0 mg/kg/injection, schedule: Q01DX009 (ip), vehicle: water 97 % of control | dose: 200.0 mg/kg/injection, schedule: Q01DX009 (ip), vehicle: water 86 % of control | dose: 400.0 mg/kg/injection, schedule: Q01DX009 (ip), vehicle: water 94 % of control

Nc1[nH]cnc(=S)c1N
inactive: dose: 100.0 mg/kg/injection, schedule: Q04DX002 (ip), vehicle: saline with Tween-80 106 % of control | dose: 200.0 mg/kg/injection, schedule: Q04DX002 (ip), vehicle: saline with Tween-80 102 % of control | dose: 400.0 mg/kg/injection, schedule: Q04DX002 (ip), vehicle: saline with Tween-80 106 % of control

CC1OC(c2ccc3c(c2O)C(=O)c2ccc(CC(C)(O)CC(=O)O)cc2C3=O)CC(O)C1O (stereo not given)
inactive: [16] 90 % of control | [17] 93 % of control | [18] 96 % of control | dose: 100.0 mg/kg/injection, schedule: Q01DX005 (ip), vehicle: suspension in saline 110 % of control | dose: 200.0 mg/kg/injection, schedule: Q01DX005 (ip), vehicle: suspension in saline 101 % of control

Cc1cc2nc(CC(O)(C(F)(F)F)C(F)(F)F)oc2cc1C
inactive: [13] 95 % of control | [14] 95 % of control | [15] 100 % of control

CCCCCCCCCCCC(=O)OC/C=C/COC(=O)c1ccccc1
inactive: [10] 100 % of control | [11] 108 % of control | [12] 96 % of control
